The source of these data is patent publication US10173974B1, “Natural product-based synthesis of novel anti-infective isothiocyanate- and isoselenocyanate-functionalized amphilectane diterpenes” (priority 2015, dated 2019).

In one series the test system is Mtb H37Rv (ATCC 27 294). In words: Microplate Alamar blue assay (MABA), antitubercular activity. Particulars: for MABA MIC: Mtb H37Rv. It counts as cell-based, Mycobacterium tuberculosis. In general terms: Resazurin is reduced to fluorescent resorufin, in cell work by metabolically active cells.
Another series in a line: in vitro. To be noted: African green monkey.
The subject of series [1] is P. falciparum Dd2 (drug resistant). As to the kind of experiment: SYBR Green parasite proliferation assay, P. falciparum Dd2 strain. It counts as cell-based, Plasmodium falciparum.
Series [2] relates to P. falciparum 3D7 (chloroquine-sensitive). As to the kind of experiment: SYBR Green parasite proliferation assay, P. falciparum 3D7 strain. In kind it is cell-based, Plasmodium falciparum.
Series [3] concerns Vero cell line ATCC CRL-1586.
Setting [4] is: P. falciparum Dd2 (drug resistant), 72 h incubation, in vitro growth inhibition.
[5] abbreviates: P. falciparum 3D7 (chloroquine-sensitive), 72 h incubation, in vitro growth inhibition.

In brackets after ≈: the same amount, converted by molar mass. Read-outs that look alike come from different tables or passages of the source.

The term MIC denotes the lowest concentration that inhibits growth of the organism. As usually defined, the IC50 is the point on the concentration scale where inhibition reaches its midpoint.

Take `CO[C@H]1/C=C/O[C@@]2(C)Oc3c(C)c(O)c4c(O)c(c(/C=N/N5CCN(C)CC5)c(O)c4c3C2=O)NC(=O)/C(C)=C\C=C\[C@H](C)[C@H](O)[C@@H](C)[C@@H](O)[C@@H](C)[C@H](OC(C)=O)[C@@H]1C` [RMP, rifampicin, reference compound]: the MIC with Mtb H37Rv (ATCC 27 294) (Mycobacterium tuberculosis, read-out: MABA MIC) was 0.09 µM (≈ 0.0741 µg/mL). Moreover, the CC50 in the series “in vitro” was > 100000 nM.

Turning to `C=C1CC[C@@]2(N=C=[Se])[C@H]3[C@H](CC[C@@H]2C)[C@@H](C)C[C@@H](CC(C)(C)N=C=[Se])[C@H]13` [Compound 5, 8,15-Diisoselenocyano-11(20)-amphilectene], the half-maximal inhibitory concentration (IC50) was 6.6 nM in series [1] (setting [4]) and 2.5 nM in series [2] (setting [5]). Moreover, in the series on Mtb H37Rv (ATCC 27 294), the “MABA MIC” value came out at 3.9 µM.

As for `C=C(C)C[C@@H]1C[C@H](C)[C@H]2CC[C@H](C)[C@@]3(N=C=[Se])CCC(=C)[C@@H]1[C@H]23` [Compound 6, 8-Isoselenocyanoamphilecta-11(20),15-diene], the IC50 turned out to be 149 nM in series [1] and 188 nM in series [2]. Besides, in the series with Mtb H37Rv (ATCC 27 294), the “MABA MIC” value is 2.1 µM.

Turning to `C=C1CC[C@@]2(N=C=S)[C@H]3[C@H](CC[C@@H]2C)[C@@H](C)C[C@@H](CC(C)(C)N=C=S)[C@H]13` [Compound 2, 8,15-Diisothiocyano-11(20)-amphilectene], the IC50 is 11600 nM in series [1] (setting [4]) and 11800 nM in series [2] (setting [5]). Besides, the “MABA MIC” value in the series with Mtb H37Rv (ATCC 27 294) came to 99.1 µM.

Consider `[C-]#[N+]C(C)(C)CC1CC(C)C2CCC(C)C3([N+]#[C-])CCC(=C)C1C23` (single isomer, unassigned; (-)) [Compound 1, (−)-8,15-diisocyano-11(20)-amphilectene, reference compound], for which the IC50 in series [1] (setting [4]) came out at 3.1 nM; in series [2] (setting [5]), 1.2 nM. The “MABA MIC” value with Mtb H37Rv (ATCC 27 294) worked out at 9.8 µM.

Take “8-Isothiocyano-15-isoselenocyano-11(20)-amphilectene (3) and 8-Isoselenocyano-15-isothiocyano-11(20)-amphilectene (4) [Compound 3 and 4]”: in series [3], the CC50 came to 78100 nM.

For the molecule `CCN(CC)CCCC(C)Nc1ccnc2cc(Cl)ccc12` (centres unmarked) [CQ, chloroquine, reference compound], the IC50 turned out to be 51.9 nM in series [1] (Plasmodium falciparum, P. falciparum Dd2 (drug resistant), 72 h incubation, in vitro growth inhibition) and 10.9 nM in series [2] (Plasmodium falciparum, P. falciparum 3D7 (chloroquine-sensitive), 72 h incubation, in vitro growth inhibition).
